Source: the NIST ThermoML archive (doi:10.1016/j.jct.2015.11.027)

Settings: Liquid, Vibrating wire viscometry

Cc1cccc(C)c1 [1,3-dimethylbenzene]
Settings	viscosity [mPa·s]
273.54 K, 10000 kPa	0.8601
273.54 K, 25000 kPa	0.9681
273.54 K, 30000 kPa	1.008
273.55 K, 1000 kPa	0.8029
273.55 K, 5000 kPa	0.8274
273.55 K, 15000 kPa	0.8952
273.55 K, 20000 kPa	0.9293
273.56 K, 100 kPa	0.7948
283.24 K, 100 kPa	0.7
283.24 K, 10000 kPa	0.7574
283.25 K, 1000 kPa	0.707
283.25 K, 5000 kPa	0.7291
283.25 K, 15000 kPa	0.7883
283.25 K, 20000 kPa	0.8196
283.25 K, 25000 kPa	0.853
283.25 K, 30000 kPa	0.8858
293.06 K, 1000 kPa	0.6255
293.06 K, 20000 kPa	0.7224
293.06 K, 25000 kPa	0.7497
293.07 K, 100 kPa	0.6215
293.07 K, 5000 kPa	0.644
293.07 K, 10000 kPa	0.6692
293.07 K, 15000 kPa	0.6957
293.07 K, 30000 kPa	0.7757
302.87 K, 30000 kPa	0.6903
302.88 K, 5000 kPa	0.5751
302.88 K, 25000 kPa	0.6673
302.89 K, 15000 kPa	0.6204
302.9 K, 100 kPa	0.5542
302.9 K, 1000 kPa	0.5571
302.9 K, 10000 kPa	0.598
302.9 K, 20000 kPa	0.645
313.29 K, 1000 kPa	0.4982
313.3 K, 100 kPa	0.4952
313.3 K, 5000 kPa	0.5142
313.3 K, 10000 kPa	0.5341
313.31 K, 15000 kPa	0.5548
313.31 K, 20000 kPa	0.5757
313.31 K, 25000 kPa	0.5968
313.31 K, 30000 kPa	0.618
323 K, 10000 kPa	0.4847
323.01 K, 100 kPa	0.4499
323.01 K, 1000 kPa	0.4531
323.01 K, 5000 kPa	0.467
323.02 K, 15000 kPa	0.5032
323.02 K, 20000 kPa	0.522
323.02 K, 25000 kPa	0.5411
323.02 K, 30000 kPa	0.5599
333.1 K, 100 kPa	0.4087
333.11 K, 1000 kPa	0.411
333.11 K, 5000 kPa	0.4237
333.11 K, 10000 kPa	0.4414
333.11 K, 15000 kPa	0.4585
333.11 K, 20000 kPa	0.4756
333.12 K, 25000 kPa	0.4931
333.12 K, 30000 kPa	0.5101
342.97 K, 20000 kPa	0.4363
342.97 K, 25000 kPa	0.4516
342.97 K, 30000 kPa	0.4678
342.98 K, 100 kPa	0.3731
342.98 K, 1000 kPa	0.3761
342.98 K, 5000 kPa	0.3882
342.98 K, 10000 kPa	0.4036
342.98 K, 15000 kPa	0.4205
352.88 K, 20000 kPa	0.4014
352.88 K, 25000 kPa	0.4162
352.88 K, 30000 kPa	0.431
352.89 K, 100 kPa	0.3436
352.89 K, 1000 kPa	0.346
352.89 K, 5000 kPa	0.3581
352.89 K, 10000 kPa	0.3728
352.89 K, 15000 kPa	0.3867
362.69 K, 100 kPa	0.3175
362.7 K, 1000 kPa	0.32
362.7 K, 5000 kPa	0.3307
362.7 K, 10000 kPa	0.3452
362.71 K, 15000 kPa	0.3587
362.71 K, 20000 kPa	0.3726
362.71 K, 25000 kPa	0.3859
362.71 K, 30000 kPa	0.3995
372.5 K, 100 kPa	0.2936
372.5 K, 1000 kPa	0.2964
372.51 K, 5000 kPa	0.307
372.51 K, 10000 kPa	0.3199
372.51 K, 15000 kPa	0.3331
372.51 K, 20000 kPa	0.3463
372.51 K, 25000 kPa	0.3587
372.51 K, 30000 kPa	0.3715

CCc1ccccc1 [ethylbenzene]
Settings	viscosity [mPa·s]
253.21 K, 5000 kPa	1.259
253.22 K, 1000 kPa	1.211
253.22 K, 10000 kPa	1.311
253.22 K, 35000 kPa	1.593
253.23 K, 100 kPa	1.2
253.23 K, 20000 kPa	1.423
253.23 K, 25000 kPa	1.479
253.24 K, 15000 kPa	1.368
253.24 K, 30000 kPa	1.535
263.2 K, 10000 kPa	1.11
263.2 K, 15000 kPa	1.16
263.21 K, 5000 kPa	1.063
263.21 K, 20000 kPa	1.207
263.21 K, 25000 kPa	1.257
263.21 K, 35000 kPa	1.35
263.22 K, 100 kPa	1.021
263.22 K, 1000 kPa	1.028
263.22 K, 30000 kPa	1.304
273.15 K, 5000 kPa	0.9249
273.15 K, 20000 kPa	1.042
273.15 K, 30000 kPa	1.123
273.15 K, 35000 kPa	1.163
273.16 K, 25000 kPa	1.082
273.17 K, 1000 kPa	0.8919
273.18 K, 10000 kPa	0.9635
273.19 K, 15000 kPa	1.003
273.21 K, 100 kPa	0.8832
283.13 K, 1000 kPa	0.7784
283.14 K, 10000 kPa	0.8372
283.15 K, 20000 kPa	0.9017
283.16 K, 100 kPa	0.7737
283.16 K, 5000 kPa	0.8028
283.16 K, 30000 kPa	0.9641
283.16 K, 35000 kPa	0.9964
283.17 K, 15000 kPa	0.8678
283.17 K, 25000 kPa	0.9314
293.18 K, 5000 kPa	0.7056
293.2 K, 1000 kPa	0.6832
293.22 K, 25000 kPa	0.8173
293.23 K, 15000 kPa	0.7607
293.24 K, 10000 kPa	0.7327
293.24 K, 20000 kPa	0.7871
293.24 K, 30000 kPa	0.8447
293.26 K, 100 kPa	0.6786
293.26 K, 35000 kPa	0.8724
303.15 K, 100 kPa	0.6033
303.17 K, 1000 kPa	0.6074
303.17 K, 20000 kPa	0.6989
303.18 K, 5000 kPa	0.6268
303.18 K, 25000 kPa	0.7235
303.18 K, 35000 kPa	0.7739
303.19 K, 15000 kPa	0.6744
303.19 K, 30000 kPa	0.7502
303.2 K, 10000 kPa	0.6499
313.08 K, 30000 kPa	0.6722
313.09 K, 20000 kPa	0.6261
313.1 K, 10000 kPa	0.5812
313.1 K, 25000 kPa	0.649
313.1 K, 35000 kPa	0.694
313.11 K, 5000 kPa	0.5596
313.12 K, 100 kPa	0.5386
313.12 K, 1000 kPa	0.5427
313.12 K, 15000 kPa	0.6039
322.97 K, 100 kPa	0.4865
322.97 K, 20000 kPa	0.5648
322.98 K, 1000 kPa	0.4895
322.98 K, 5000 kPa	0.5042
322.98 K, 10000 kPa	0.5245
322.98 K, 15000 kPa	0.544
322.98 K, 25000 kPa	0.5856
322.98 K, 30000 kPa	0.606
322.98 K, 35000 kPa	0.6259
332.91 K, 100 kPa	0.4422
332.91 K, 5000 kPa	0.4595
332.92 K, 1000 kPa	0.4448
332.92 K, 10000 kPa	0.478
332.92 K, 15000 kPa	0.4961
332.92 K, 20000 kPa	0.5149
332.92 K, 25000 kPa	0.5331
332.92 K, 30000 kPa	0.5516
332.92 K, 35000 kPa	0.5706
342.8 K, 1000 kPa	0.4049
342.8 K, 10000 kPa	0.4356
342.8 K, 15000 kPa	0.4524
342.8 K, 20000 kPa	0.4691
342.8 K, 25000 kPa	0.4869
342.8 K, 30000 kPa	0.5045
342.8 K, 35000 kPa	0.5223
342.81 K, 100 kPa	0.4022
342.81 K, 5000 kPa	0.4186
352.72 K, 5000 kPa	0.3851
352.72 K, 20000 kPa	0.4335
352.72 K, 35000 kPa	0.4807
352.73 K, 100 kPa	0.3693
352.73 K, 1000 kPa	0.372
352.73 K, 10000 kPa	0.4003
352.73 K, 15000 kPa	0.4164
352.73 K, 25000 kPa	0.4495
352.73 K, 30000 kPa	0.4654
362.66 K, 100 kPa	0.339
362.66 K, 1000 kPa	0.3418
362.66 K, 5000 kPa	0.3538
362.66 K, 15000 kPa	0.3838
362.66 K, 20000 kPa	0.3986
362.66 K, 25000 kPa	0.4137
362.66 K, 30000 kPa	0.4289
362.67 K, 10000 kPa	0.3685
362.67 K, 35000 kPa	0.4429
372.59 K, 5000 kPa	0.3272
372.59 K, 10000 kPa	0.341
372.59 K, 15000 kPa	0.3541
372.59 K, 20000 kPa	0.3688
372.59 K, 25000 kPa	0.3822
372.59 K, 30000 kPa	0.3967
372.59 K, 35000 kPa	0.4108
372.6 K, 1000 kPa	0.3155
372.61 K, 100 kPa	0.3127
